Patent US5510385A, “Pharmaceutical compositions containing the salts of S(+)-2-(4-isobutylphenyl)propionic acid with basic aminoacids” (priority 1993, dated 1996)
Structures can show the parent of a compound that is named as a salt.

Assays:
[1] = S(+)-Ibuprofen plasma concentrations and bioavailability parameters after single oral dose, cross-over (Examples 6-10, HPLC)
Procedure: Each subject was apparently healthy, especially as lap as the Renal, hepatic and hematopoietic functions were concerned.
For the trial, a cross-over design was adopted: each subject received both preparations in two treatment sessions carried out in two different weeks randomizing the order of the administration.
Further, samples of venous blood were withdrawn at 5, 10, 15, 30, 45, 60, 90, 120, 240 and 480 minutes after the treatment. Plasma was then prepared by centrifugation and preserved at -20° C. until the analysis.
The analytical determination of the active ingredient in the plasma samples was carried out by HPLC method as described hereinafter. Chromatographic conditions:
Apparatus: JASCO BIP-1 with U.V. detector UVI DEC-100 v
Column: Chiral AGP, 100×4.0 mm, 5 μm (Chron Tech) with a precolumn Chiral AGP 10×3.0 mm (Chron Tech) […]
The following parameters were calculated:
the area under curve of S(+)-Ibuprofen plasma concentration from time "zero" to "infinite" (AUCtot) was calculated by the following formula: AUCtot =AUCo→480 +AUC480→- wherein AUC480- =concentration at 480 minutes/Ke. and Ke =elimination constant
mean peak time (tmax), expressed as minutes, was obtained from the average of each peak time
the mean peak of maximum plasma concentration (Cmax), expressed as μg/ml, was calculated by the average of each concentration peak value.

[2] = in words, versus Ibuprofen (and, EP 424028, Ibuprofen salts and S(+)-Ibuprofen); cited from earlier work

| increase of S(+)-Ibuprofen maximum plasma concentration over equivalent Ibuprofen salt composition ([1]; 400 mg or 300 mg of S(+)-Ibuprofen versus 800 mg or 600 mg of Ibuprofen, oral) | S(+)-Ibuprofen maximum plasma concentration (Cmax) compared with equivalent racemic Ibuprofen treatment ([1]; in words, versus reference treatment) | SMILES | analgesic effect (onset and duration) [2] |
| --- | --- | --- | --- |
| 15-20% | substantially equal | CC(C)Cc1ccc([C@H](C)C(=O)O)cc1 [S(+)-Ibuprofen arginate, salt of S(+)-Ibuprofen with L-arginine] |  |
|  |  | CC(C)Cc1ccc([C@H](C)C(=O)O)cc1 [S(+)-Ibuprofen, (S)-enantiomer of 2-(4-isobutylphenyl)propionic acid] | faster, and consequently a longer, analgesic effect than Ibuprofen |
